# Patent US20170313669A1, “LACTONE COMPOUNDS AND METHODS OF MAKING AND USING SAME” (THE SCRIPPS RESEARCH INSTITUTE, priority 2015, published 2017)
# How the values were obtained:
# [1] = tested on: COLO205 cells; assay: LC-MS lipid profiling of treated cells; assay type: cell-based, human; conditions: 1 μM, 4 h
# Procedure: ABHD16A^+/+, ABHD16A^+/+, and ABHD16A^−/− littermates of 10 weeks age were anaesthetized by isoflurane and killed by decapitation. The tissues (brains were sliced laterally into two hemispheres; entire spinal cord) were harvested, weighed, and immediately submerged in liquid N2. Tissues (one half brain or entire spinal cord) were then Dounce-homogenized in 8 mL of 2:1:1 (vol/vol/vol) CHCl3: MeOH: PBS containing the internal standard mix (1 nmol 17:1 FFA, and 100 pmol each of 17:1 lyso-PS, 17:0-20:4 PS, 17:1 lyso-PC, 17:0-20:4 PC, 17:0-20:4 PE and 50 pmol of 2-AG-d5). Homogenates were transferred to a glass vial and centrifuged at 2800×g for 10 minutes to separate the two phases. The organic phase (bottom) was removed, 200 μL of formic acid was added to acidify the aqueous homogenate (to enhance extraction of phospholipids), and CHCl3 was added to make up 8 mL volume. The mixture was vortexed, and separated using centrifugation described above. Both the organic extracts were pooled, and dried under a stream of N2. The metabolomes were then re-solubilized in 120 μL of 2:1 (vol/vol) CHCl3: MeOH, and 10 μL were used for the targeted LC-MS analysis. For cellular and secreted metabolomics studies, serum free phenol red free RPMI 1640 media was used to prevent any promiscuous contributions from serum lipids. For the cellular metabolomics studies, 3×10^6 cells were used for all cancer cell lines (COLO205, K562, and MCF7) and lymphoblast cell lines (LCLs), and 2×10^6 cells were used for thioglycollate-elicited peritoneal macrophages. […]
# All the metabolites analyzed in this study were quantified using the multiple reaction monitoring (MRM) methods the targeted LC/MS analysis was done using an Agilent Technologies 6460 Triple Quad LC/M with an Agilent Technologies 1290 Infinity series quaternary pump. All data was collected using the LC/MS Data Acquisition mode of the Mass Hunter Workstation Software version B.05.00 build 5.0.5027.0 SP, and analyzed using the Quantitative Analysis mode of the same software. […]
# [2] = target: T1, ABHD2 (Homo sapiens, UniProt P08910); assay: ABPP-SILAC, COLO205 cells treated in situ; assay type: cell-based; conditions: COLO 205, 4 h
# T1 construct: All ABPP-SILAC experiments were performed using the human COLO205 colon cancer cell line; endogenous in cells; host or cells: COLO205
# T1 sequence (P08910 whole entry): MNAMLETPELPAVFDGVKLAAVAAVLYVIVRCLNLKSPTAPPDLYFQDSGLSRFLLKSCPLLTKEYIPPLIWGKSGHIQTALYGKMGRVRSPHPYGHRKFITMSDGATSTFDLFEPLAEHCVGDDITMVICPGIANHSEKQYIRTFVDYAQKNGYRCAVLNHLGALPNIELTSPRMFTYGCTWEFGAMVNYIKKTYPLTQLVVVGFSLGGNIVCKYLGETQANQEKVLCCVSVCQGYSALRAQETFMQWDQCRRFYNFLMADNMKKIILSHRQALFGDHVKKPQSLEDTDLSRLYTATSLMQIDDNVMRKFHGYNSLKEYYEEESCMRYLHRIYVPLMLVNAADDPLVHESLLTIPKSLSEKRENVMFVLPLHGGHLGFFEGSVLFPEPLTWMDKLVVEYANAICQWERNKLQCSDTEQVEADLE
smiles,measurement,setting,value
"CCCCCCCCCCCCCC1OC(=O)/C1=C\CCCCC(N)=O (stereo not shown) [KC01, (Z)-6-(2-oxo-4-tridecyloxetan-3-ylidene)hexanamide]","other lipids (PSs, PCs, PEs, lyso-PCs, lyso-PEs, MAGs)",[1],No changes
same,secreted lyso-PSs (18:1 and 18:0),[1]; serum-free media,decreased
same,cellular lyso-PSs,[1]; vs DMSO,significant reductions in all detected cellular lyso-PSs
same,inhibition at 1 µM,[2],94%
